# B1: glial cell line derived neurotrophic factor (protein, UniProt P39905 78-211, looked up)
# Glial cell line-derived …: SPDKQMAVLPRRERNRQAAAANPENSRGKGRRGQRGKNRGCVLTAIHLNVTDLGLGYETKEELIFRYCSGSCDAAETTYDKILKNLSRNRRLVSDKVGQACCRPIAFDDDLSFLDDNLVYHILRKHSAKRCGCI
# Assays:
# [1] = tested on: MitoPark™ mice; experiment: Spontaneous locomotor activity of MitoPark mice; format: in vivo
# Source text: Vertical movements declined earlier and faster than horizontal movements (data not shown), modeling the early occurrence of axial postural instability in PD. […] The MitoPark™ mice began to lose weight from ˜20 weeks and died at 29-33 weeks of age, at which point the majority of substantia nigra DA neurons had been lost.
# [2] = without irradiation and chemotherapy; cited from earlier work
# [3] = tested on: substantia nigra microglia; experiment: Recruitment of bone marrow-derived microglia to substantia nigra after MPTP; format: in vivo; details: MSP-GFP mice nine weeks after the last injection of MPTP
# Procedure: (§1) Eight weeks after transplantation, recipient mice were injected with MPTP to induce dopaminergic neurodegeneration. MPTP dissolved in saline was injected subcutaneously into MSP-GDNF and MSP-GFP mice as follows: 15 mg/kg free base MPTP on day 1, 25 mg/kg on day 2, and 30 mg/kg on days 3-7. Control mice were treated with saline following the same regimen. Nine weeks after the last injection of MPTP or saline, MSP-GFP mice were sacrificed to evaluate the differentiation of gene-modified macrophages into microglia and their recruitment to substantia nigra.
# [4] = tested on: TH-positive cells in the SNpc; experiment: Continuous MPTP osmotic minipump infusion, TH-positive and GFP cells in SNpc; format: in vivo, mice; details: continuous infusion 5 mg MPTP/kg daily for 28 days
# Procedure: FIGS. 7A-B. Plots of quantitative stereologic data illustrating TH-positive cells in the SNpc from mice that were continuously treated with saline (n=3) or 5 mg MPTP/kg daily (n=2) for 28 days (FIG. 7A). Semi-quantitative analysis of GFP-positive cells in the nigra of mice that were continuously treated with saline (n=3) or 5 mg MPTP/kg daily (n =2) for 28 days. Each bar represents the mean±standard error of the total number of GFP-positive cells per five representative sections of substantia nigra pars compacta per animal (FIG. 7B).
# The minipumps were implanted subcutaneously on the upper back of the animal. The minipumps delivers saline or MPTP at a flow rate 0.35μ1/hr for 28 days. The concentration of MPTP solution was adjusted in such a way that the animals receive or 5 mg MPTP/kg daily for 28 days. On day 30 (after the start of MPTP or saline) the animals were killed and the brains were analyzed for the loss of TH-posive cells and the recruitment bone marrow derived GFP cells in the SNpc.
# [5] = tested on: mice; experiment: Motor coordination tests in MPTP-only model; format: in vivo; details: MPTP-treated group vs saline-treated controls
# Source text: MPTP/probenecid mouse model. […] In addition, spontaneous recovery of the nigrostriatal system that is typically observed with this regimen places limits on detection of changes in motor coordination. Mice were subjected to tests for motor coordination, including rotarod test, gait test/foot print analysis, pole test, beam walking test, and grid test.
# [6] = tested on: TH-positive neurons in the SNpc; experiment: Stereology of TH-positive neurons in SNpc after MPTP; details: MPTP-alone regimen
# Procedure: as §1
# Three or nine weeks after the last MPTP or saline injection, recipient mice were sacrificed and the neuroprotective effect of macrophage-mediated GDNF delivery on the nigrostriatal dopaminergic system was assessed by quantitative analysis of TH-positive neurons in the substantia nigra pars compacta (SNpc), as well as the density of TH-positive terminals in the striatum. […] In addition, total number of Nissl-stained neurons in the SNpc was counted for each treatment group to make sure that GDNF treatment indeed prevented actual cell death (FIG. 8).
# [7] = cited from earlier work
molecule,measurement,setting,value
N[C@@H](Cc1ccc(O)c(O)c1)C(=O)O [L-DOPA],locomotor deficits,[1],transiently reversed
c1cc(CN2CCCNCCNCCCNCC2)ccc1CN1CCCNCCNCCCNCC1 [AMD3100],effectiveness as conditioning regimen,[2],not to be sufficiently effective
"CN1CC=C(c2ccccc2)CC1 [MPTP, 1-methyl-4-phenyl-1,2,3,6-tetrahydropyridine]",proportion of total microglia (Iba1-positive) in the nigra that were bone marrow derived,[3],47%
same,increase in the number of bone marrow derived GFP cells in the SNpc,[4],four-fold
same,loss of TH-positive cells in the SNpc,[4],approximately 31%
same,"motor coordination (rotarod, gait/foot print, pole, beam walking, grid test)",[5],None of these tests showed statistically significant differences
same,reduction in TH-positive cells,[6],approximately 50%
B1,side effects,[7]; direct brain infusion,"side effects, including allodynia and weight loss"
same,cerebellar toxicity,[7]; high doses (100 μg/day) intraputamenal,significant cerebellar Purkinje cell death
